Read-outs that look alike come from different tables or passages of the source.
Test system: cancer cell lines
Assay: Standard Cytotoxicity Assay for other cancer cell types (TC50, CellTiter-Glo)
Type: cell-based
Procedure: Approximately 24 hours later, test compound was added from serial dilutions prepared in DMSO from DMSO stock solutions.

O=C(NCc1cccnc1)Nc1ccc(COc2ccccc2-c2ccccc2)cc1 [Exemplary Compound A, 1-{4-[(biphenyl-2-yloxy)methyl]phenyl}-3-(pyridin-3-ylmethyl)urea]
CC50 (72 h, DB (lymphoma), 3 DAY, read-out: TC50 (the source's name)): 3.5 nM | CC50 (72 h, DEL cells (lymphoma), 3 day, read-out: Cmpd A 3 day TC50): 41 nM | CC50 (72 h, MC/CAR cells (myeloma), 3 day, read-out: Cmpd A 3 day TC50): 8.2 nM | CC50 (72 h, NAMALWA cells (lymphoma), 3 day, read-out: Cmpd A 3 day TC50): 0.85 nM | CC50 (Calu-6 cells (lung (NSCLC)), 3 day, read-out: Cmpd A 3 day TC50): 12 nM | CC50 (DU145 cells (prostate), 3 day, read-out: Cmpd A 3 day TC50): 3.8 nM | CC50 (Daudi cells (lymphoma), 3 day, read-out: Cmpd A 3 day TC50): < 0.8 nM | CC50 (Homo sapiens, 22Rv1, 72 h, 22RV1 cells (prostate), 3 day, read-out: Cmpd A 3 day TC50): 8.4 nM | CC50 (Homo sapiens, A 172, 72 h, A172 (glioma), 3 DAY, read-out: TC50 (the source's name)): 1.1 nM | CC50 (Homo sapiens, A498, 72 h, A498 cells (kidney), 3 day, read-out: Cmpd A 3 day TC50): 43 nM | CC50 (Homo sapiens, A2058, 72 h, A2058 cells (melanoma (lymph node metastasis)), 3 day, read-out: Cmpd A 3 day TC50): 3.4 nM | CC50 (Homo sapiens, ACHN, 72 h, ACHN cells (kidney), 3 day, read-out: Cmpd A 3 day TC50): 3.7 nM | CC50 (Homo sapiens, BT-20, 72 h, BT-20 cells (breast), 3 day, read-out: Cmpd A 3 day TC50): 13 nM | CC50 (Homo sapiens, BT-474, 168 h, BT-474 cells (breast), 7 day, read-out: Cmpd A 7 day TC50): 1.1 nM | CC50 (Homo sapiens, BXPC-3, 72 h, BxPC-3 cells (pancreas), 3 day, read-out: Cmpd A 3 day TC50): 11 nM | CC50 (Homo sapiens, CAMA-1, 72 h, CAMA-1 cells (breast), 3 day, read-out: Cmpd A 3 day TC50): 4.6 nM | CC50 (Homo sapiens, CCRF-CEM, 72 h, CCRF-CEM cells (lymphocytic leukemia), 3 day, read-out: Cmpd A 3 day TC50): 2 nM | CC50 (Homo sapiens, COLO 205, 72 h, COLO205 (colon), 3 DAY, read-out: TC50 (the source's name)): 0.5 nM | CC50 (Homo sapiens, COLO 205, 168 h, COLO205 (colon), 7 DAY, read-out: TC50 (the source's name)): 0.3 nM | CC50 (Homo sapiens, COLO 205, 168 h, COLO205 cells (colon), 7 day, read-out: Cmpd A 7 day TC50): 0.3 nM | CC50 (Homo sapiens, Calu-6, 72 h, Calu-6 cells (lung (NSCLC)), 3 day, read-out: Cmpd A 3 day TC50): 11 nM | CC50 (Homo sapiens, DBTRG-05MG, 72 h, DBTRG-05MG cells (brain; glioblastoma), 3 day, read-out: Cmpd A 3 day TC50): 19 nM | CC50 (Homo sapiens, DLD-1, 72 h, DLD-1 cells (colon), 3 day, read-out: Cmpd A 3 day TC50): 1.7 nM | CC50 (Homo sapiens, DMS-114, 72 h, DMS-114 (SCLC), 3 DAY, read-out: TC50 (the source's name)): 0.16 nM | CC50 (Homo sapiens, DU-145, 72 h, DU145 (prostate), 3 DAY, read-out: TC50 (the source's name)): 3.9 nM | CC50 (Homo sapiens, DU-145, 72 h, DU145 cells (prostate), 3 day, read-out: Cmpd A 3 day TC50): 3.9 nM | CC50 (Homo sapiens, DU-145, 168 h, DU145 (prostate), 7 DAY, read-out: TC50 (the source's name)): 2.7 nM | CC50 (Homo sapiens, DU-145, 168 h, DU145 cells (prostate), 7 day, read-out: Cmpd A 7 day TC50): 3 nM | CC50 (Homo sapiens, DU-4475, 72 h, DU4475 (breast), 3 DAY, read-out: TC50 (the source's name)): 0.1 nM | CC50 (Homo sapiens, DU-4475, 72 h, DU4475 cells (breast), 3 day, read-out: Cmpd A 3 day TC50): 0.1 nM | CC50 (Homo sapiens, DU-4475, 168 h, DU4475 (breast), 7 DAY, read-out: TC50 (the source's name)): 0.1 nM | CC50 (Homo sapiens, DU-4475, 168 h, DU4475 cells (breast), 7 day, read-out: Cmpd A 7 day TC50): 0.1 nM | CC50 (Homo sapiens, Daudi, 72 h, Daudi cells (lymphoma), 3 day, read-out: Cmpd A 3 day TC50): 1.4 nM | CC50 (Homo sapiens, EKVX, 72 h, EKVX cells (lung (NSCLC)), 3 day, read-out: Cmpd A 3 day TC50): 4 nM | CC50 (Homo sapiens, EKVX, 168 h, EKVX cells (lung (NSCLC)), 7 day, read-out: Cmpd A 7 day TC50): 1 nM | CC50 (Homo sapiens, H9, 72 h, H9 cells (lymphoma), 3 day, read-out: Cmpd A 3 day TC50): 3.2 nM | CC50 (Homo sapiens, HCC827, 72 h, HCC827 (NSCLC), 3 DAY, read-out: TC50 (the source's name)): 8 nM | CC50 (Homo sapiens, HCC827, 72 h, HCC827 cells (lung (NSCLC)), 3 day, read-out: Cmpd A 3 day TC50): 8 nM | CC50 (Homo sapiens, HCC827, 168 h, HCC827 (NSCLC), 7 DAY, read-out: TC50 (the source's name)): 1.5 nM | CC50 (Homo sapiens, HCC827, 168 h, HCC827 cells (lung (NSCLC)), 7 day, read-out: Cmpd A 7 day TC50): 1.5 nM | CC50 (Homo sapiens, HCC1937, 72 h, HCC1937 cells (breast), 3 day, read-out: Cmpd A 3 day TC50): 61 nM | CC50 (Homo sapiens, HCC1937, 168 h, HCC1937 cells (breast), 7 day, read-out: Cmpd A 7 day TC50): 1.5 nM | CC50 (Homo sapiens, HCT-15, 72 h, HCT-15 (colon), 3 DAY, read-out: TC50 (the source's name)): 0.7 nM | CC50 (Homo sapiens, HCT-15, 168 h, HCT-15 (colon), 7 DAY, read-out: TC50 (the source's name)): 1 nM | CC50 (Homo sapiens, HCT-15, 168 h, HCT-15 cells (colon), 7 day, read-out: Cmpd A 7 day TC50): 1 nM | CC50 (Homo sapiens, HCT-116, 72 h, HCT116 (colon), 3 DAY, read-out: TC50 (the source's name)): 0.6 nM | CC50 (Homo sapiens, HCT-116, 72 h, HCT-116 cells (colon), 3 day, read-out: Cmpd A 3 day TC50): 0.2 to 4.4 nM | CC50 (Homo sapiens, HCT-116, 168 h, HCT116 (colon), 7 DAY, read-out: TC50 (the source's name)): 0.4 nM | CC50 (Homo sapiens, HCT-116, 168 h, HCT-116 cells (colon), 7 day, read-out: Cmpd A 7 day TC50): 0.4 nM | CC50 (Homo sapiens, HL-60, 72 h, HL-60 cells (myelogenous leukemia), 3 day, read-out: Cmpd A 3 day TC50): 5.3 nM | CC50 (Homo sapiens, HOP-62, 72 h, HOP62 cells (lung (NSCLC)), 3 day, read-out: Cmpd A 3 day TC50): 4 nM | CC50 (Homo sapiens, HOP-92, 72 h, HOP92 (NSCLC), 3 DAY, read-out: TC50 (the source's name)): 17 nM | CC50 (Homo sapiens, HOP-92, 72 h, HOP92 cells (lung (NSCLC)), 3 day, read-out: Cmpd A 3 day TC50): 17 nM | CC50 (Homo sapiens, HOP-92, 168 h, HOP92 (NSCLC), 7 DAY, read-out: TC50 (the source's name)): 4.3 nM | CC50 (Homo sapiens, HOP-92, 168 h, HOP92 cells (lung (NSCLC)), 7 day, read-out: Cmpd A 7 day TC50): 4.3 nM | CC50 (Homo sapiens, HOS, 72 h, HOS cells (osteosarcoma), 3 day, read-out: Cmpd A 3 day TC50): < 0.8 nM | CC50 (Homo sapiens, HT-29, 72 h, HT29 (colon), 3 DAY, read-out: TC50 (the source's name)): 1.4 nM | CC50 (Homo sapiens, HT-29, 72 h, HT29 cells (colon), 3 day, read-out: Cmpd A 3 day TC50): 1.4 nM | CC50 (Homo sapiens, HT-29, 168 h, HT29 (colon), 7 DAY, read-out: TC50 (the source's name)): 1.1 nM | CC50 (Homo sapiens, HT-29, 168 h, HT29 cells (colon), 7 day, read-out: Cmpd A 7 day TC50): 1.1 nM | CC50 (Homo sapiens, HT-1080, 72 h, HT1080 (sarcoma), 3 DAY, read-out: TC50 (the source's name)): 1 nM | CC50 (Homo sapiens, HT-1080, 72 h, HT1080 cells (fibrosarcoma), 3 day, read-out: Cmpd A 3 day TC50): 1 nM | CC50 (Homo sapiens, HT-1080, 168 h, HT1080 (sarcoma), 7 DAY, read-out: TC50 (the source's name)): 0.6 nM | CC50 (Homo sapiens, HT-1080, 168 h, HT1080 cells (fibrosarcoma), 7 day, read-out: Cmpd A 7 day TC50): 0.6 nM | CC50 (Homo sapiens, IGROV-1, 72 h, IGR-OV1 cells (ovary), 3 day, read-out: Cmpd A 3 day TC50): 2 nM | CC50 (Homo sapiens, JJN-3, 72 h, JJN3 cells (myeloma (plasma cell leukemia)), 3 day, read-out: Cmpd A 3 day TC50): 0.9 nM | CC50 (Homo sapiens, K562, 72 h, K562 cells (myelogenous leukemia), 3 day, read-out: Cmpd A 3 day TC50): 5.7 nM | CC50 (Homo sapiens, KARPAS-299, 72 h, KARPAS-299 cells (lymphocytic leukemia), 3 day, read-out: Cmpd A 3 day TC50): 20 nM | CC50 (Homo sapiens, KINGS-1, 72 h, KINGS-1 cells (brain, anaplastic astrocytoma (glioma)), 3 day, read-out: Cmpd A 3 day TC50): 2 nM | CC50 (Homo sapiens, KM12, 72 h, KM12 (colon), 3 DAY, read-out: TC50 (the source's name)): 0.9 nM | CC50 (Homo sapiens, KM12, 72 h, KM12 cells (colon), 3 day, read-out: Cmpd A 3 day TC50): 0.9 nM | CC50 (Homo sapiens, KM12, 168 h, KM12 (colon), 7 DAY, read-out: TC50 (the source's name)): 0.4 nM | CC50 (Homo sapiens, KM12, 168 h, KM12 cells (colon), 7 day, read-out: Cmpd A 7 day TC50): 0.4 nM | CC50 (Homo sapiens, LOX IMVI, 72 h, LOX-IMVI cells (melanoma), 3 day, read-out: Cmpd A 3 day TC50): 15 nM | CC50 (Homo sapiens, MCF7, 72 h, MCF7 cells (breast), 3 day, read-out: Cmpd A 3 day TC50): 2.2 nM | CC50 (Homo sapiens, MDA-MB-231, 72 h, MDA-MB-231 (breast), 3 DAY, read-out: TC50 (the source's name)): 10 nM | CC50 (Homo sapiens, MDA-MB-231, 168 h, MDA-MB-231 (breast), 7 DAY, read-out: TC50 (the source's name)): 7.5 nM | CC50 (Homo sapiens, MDA-MB-231, 168 h, MDA-MB-231 cells (breast), 7 day, read-out: Cmpd A 7 day TC50): 8 nM | CC50 (Homo sapiens, MDA-MB-436, 72 h, MDA-MB-436 cells (breast), 3 day, read-out: Cmpd A 3 day TC50): 17 nM | CC50 (Homo sapiens, MIA PaCa-2, 72 h, MIA PaCa-2 (pancreatic), 3 DAY, read-out: TC50 (the source's name)): 1.8 nM | CC50 (Homo sapiens, MIA PaCa-2, 72 h, MiaPaCa2 cells (pancreas), 3 day, read-out: Cmpd A 3 day TC50): 1.8 nM | CC50 (Homo sapiens, MIA PaCa-2, 168 h, MIA PaCa-2 (pancreatic), 7 DAY, read-out: TC50 (the source's name)): 0.4 nM | CC50 (Homo sapiens, MIA PaCa-2, 168 h, MiaPaCa2 cells (pancreas), 7 day, read-out: Cmpd A 7 day TC50): 0.4 nM | CC50 (Homo sapiens, MM1.S, 72 h, MM.1S cells (myeloma), 3 day, read-out: Cmpd A 3 day TC50): 1.2 nM | CC50 (Homo sapiens, Malme-3M, 72 h, MALME-3M cells (melanoma (lung metastasis)), 3 day, read-out: Cmpd A 3 day TC50): 2.5 nM
